Data: US20110313672A1, “CELLULAR ANTIOXIDANT ACTIVITY (CAA) ASSAY” (CORNELL UNIVERSITY, priority 2007, published 2011)
Where two headings read alike, the source gives them in different places.

Experiments:
HepG2 cells [1] = assay: Cellular antioxidant activity (CAA) assay: inhibition of peroxyl radical-induced DCFH oxidation; type: cell-based, human; conditions: for EC50: Homo sapiens; for cellular antioxidant activity, result in words: no PBS wash protocol
Description: Cells (e.g., human hepatocellular carcinoma cells; HepG2) are seeded at a density of e.g., 6×10^4/well on a 96-well microplate in 100 μL growth medium/well. It is preferred that only the inside wells of e.g., a 96-well microplate are used for the assay, since the outer wells have increased variation compared to that of the inner wells. Twenty-four hours after seeding the growth medium is removed and the wells are washed with PBS. Triplicate wells are treated for 1 h with 100 μL of a test compound (e.g., pure phytochemical compounds or fruit extracts) plus 25 μM DCFH-DA dissolved in treatment medium.
600 μM ABAP is then applied to the cells in 100 μL HBSS and the 96-well microplate is placed into a plate reader e.g., Fluoroskan Ascent FL plate-reader (ThermoLabsystems, Franklin, Mass.) at 37° C. Emission at 538 nm is measured with excitation at 485 nm, for example every 5 min for 1 h. Each plate should include triplicate control and blank wells: control wells contain cells treated with DCFH-DA and oxidant; blank wells contain cells treated with dye and HBSS without oxidant.
A test compound is assayed in multiple wells of e.g., a 96-well cell culture plate. Some wells are washed with 100 μL of phosphate-buffered saline (PBS) prior to the addition of ABAP, while other wells were not washed prior to the addition of ABAP. It was noted that the measured antioxidant activity of some fruit extracts (e.g., blueberries) was different when a PBS wash was used compared to when there was no PBS wash (see Table 2; FIGS. 3 and 4). This is likely due to non-specific binding of certain antioxidant compounds to the outer membrane, or a reduced uptake of the compound, thus the ratio of antioxidant activity values obtained with a PBS wash compared to a non-PBS wash indicates the bioavailability of the test compound. In order to accurately measure the intracellular antioxidant activity of a test compound, a PBS wash prior to the addition of a peroxyl initiator (e.g, ABAP) is necessary. The values obtained for cells assayed using a PBS wash should be compared to values obtained for the same cells assayed without a PBS wash. One of skill in the art can plan and perform experiments on a test compound in the presence and absence of a PBS wash, in order to accurately assess the intracellular antioxidant capacity of the test compound.
After blank subtraction from the fluorescence readings, the area under the curve of fluorescence versus time is integrated to calculate the cellular antioxidant activity (CAA) value at each concentration of pure phytochemical compound or fruit extract as follows:
where ∫SA is the integrated area under the sample fluorescence versus time curve and ∫CA is the integrated area from the control curve. The median effective dose (EC50) was determined for the pure phytochemical compounds and fruit extracts from the median effect plot of log (fa/fu) vs. log (dose), where fa is the fraction affected and fu is the fraction unaffected by the treatment. To quantify intra-experimental variation, the EC50 values are stated as mean±SD for triplicate sets of data obtained from the same experiment. Inter-experimental variation is obtained for some representative pure phytochemical compounds and fruit extracts by averaging the fluorescence values from triplicate wells in each trial to obtain one EC50 value per experiment and calculating the mean±SD for at least four trials. In each experiment, a standard is used, for example quecetin, thus permitting the cellular antioxidant activities for a test compounds to be expressed as μmol quercetin equivalents (QE)/100 μmol compound. Fruit extracts are expressed as μmol QE/100 g fruit. In order to compare the antioxidant quality of different fruits, cellular antioxidant activity (CAA) is also calculated as μmol QE/100 μmol total phenolics.
Human hepatocellular carcinoma HepG2 cells were seeded at a density of 6×10^4/well on a 96-well microplate in 100 μL growth medium/well. […]

HepG2 cells [2] = assay: in vitro
Description: (§1) Briefly, HepG2 cells are seeded at 4×10^4/well on a 96-well plate in 100 μL growth medium and incubated for 24 h at 37° C. The medium is removed and the cells are washed with PBS. Treatments of fruit extracts or antioxidant compounds in 100 μL treatment medium (Williams' Medium E supplemented with 2 mM L-glutamine and 10 mM Hepes) are applied to the cells and the plates are incubated at 37° C. for 24 h. The treatment medium is removed and the cells are washed with PBS. A volume of 50 μL/well methylene blue staining solution (98% HBSS, 0.67% glutaraldehyde, 0.6% methylene blue) is applied to each well and the plate is incubated at 37° C. for 1 h.
(§2) Excess dye is removed by immersing the plate in fresh deionized water until the water appears clear. The excess water should be tapped out of the wells and the plate allowed to air-dry briefly before addition of 100 μL elution solution (49% PBS, 50% ethanol, 1% acetic acid) to each well. The microplate is then placed on a bench-top shaker for 20 minutes to allow uniform elution. The absorbance is read at 570 nm with blank subtraction using, for example a MRX II DYNEX spectrophotometer (DYNEX Inc., Chantilly, Va.). Concentrations of pure compounds or fruit extracts that decrease the absorbance by more than 10% when compared to the control are considered to be cytotoxic.
(§3) Cytotoxicity was measured using the method of Oliver et al. (31) with modifications by our laboratory (32). […] The medium was removed and the cells were washed with PBS. Treatments of fruit extracts or antioxidant compounds in 100 μL treatment medium (Williams' Medium E supplemented with 2 mM L-glutamine and 10 mM Hepes) were applied to the cells and the plates were incubated at 37° C. for 24 h. The treatment medium was removed and the cells were washed with PBS. A volume of 50 μL/well methylene blue staining solution (98% HBSS, 0.67% glutaraldehyde, 0.6% methylene blue) was applied to each well and the plate was incubated at 37° C. for 1 h. The dye was removed and the plate was immersed in fresh deionized water three times, or until the water was clear. The water was tapped out of the wells and the plate was allowed to air-dry briefly before 100 μL elution solution (49% PBS, 50% ethanol, 1% acetic acid) was added to each well. The microplate was placed on a bench-top shaker for 20 minutes to allow uniform elution. The absorbance was read at 570 nm with blank subtraction using the MRX II DYNEX spectrophotometer (DYNEX Inc., Chantilly, Va.). Concentrations of pure compounds or fruit extracts that decreased the absorbance by more than 10% when compared to the control were considered to be cytotoxic.
(§4) The median cytotoxic concentration (CC50) was calculated for each fruit.
(§5) Briefly, HepG2 cells were seeded at 4×10^4/well on a 96-well plate in 100 μL growth medium and incubated for 24 h at 37° C. The medium was removed, and the cells were washed with PBS. Flavonoids in 100 μL growth medium were applied to the cells, and the plates were incubated at 37° C. for 24 h. The medium was removed, and the cells were washed with PBS before a volume of 50 μL/well methylene blue staining solution (98% HBSS, 0.67% glutaraldehyde, 0.6% methylene blue) was applied to each well, and the plate was incubated at 37° C. for 1 h. The dye was removed, and the plate was immersed in fresh deionized water until the water was clear. The water was tapped out of the wells, and the plate was allowed to air-dry briefly before 100 μL of elution solution (49% PBS, 50% ethanol, 1% acetic acid) was added to each well. The microplate was placed on a benchtop shaker for 20 min to allow uniform
(§6) elution. The absorbance was read at 570 nm with blank subtraction using the MRX II Dynex spectrophotometer (Dynex Inc., Chantilly, Va.). The median cytotoxic concentration (CC50) was calculated for each flavonoid.

in vitro = conditions: human
Description: as §1, §2, §3, §4, §5, §6

[3] = HepG2, Example 1, Table 1, PBS wash, pure phytochemical compounds, mean ± SD, n=3, read-out: EC50 for inhibition of peroxyl radical-induced DCFH oxidation
[4] = HepG2, Example 1, Table 1, no PBS wash, pure phytochemical compounds, mean ± SD, n=3, read-out: EC50 for inhibition of peroxyl radical-induced DCFH oxidation

For Oc1cc(O)c2c(c1)O[C@H](c1ccc(O)c(O)c1)[C@H](O)C2 [Epicatechin, (−)-epicatechin], the CAA (HepG2 cells [1]; Example 3, Table 7, no PBS wash) was 1.9 ± 0.2 μmol of QE/100 μmol, the EC50 (HepG2 cells [1]; [3]) was greater than 600 µM and the EC50 (HepG2 cells [1]; [4]) was greater than 200 µM. For the same compound, the EC50 (HepG2 cells [1]; HepG2, Example 3, Table 7, PBS wash, flavonoids, mean ± SD, n=3, read-out: EC50) was greater than 800 µM, the EC50 (HepG2 cells [1]; HepG2, Example 3, Table 7, no PBS wash, flavonoids, mean ± SD, n=3, read-out: EC50) was 457 ± 47 µM and the EC50 (HepG2 cells [1]; HepG2, Example 3, text, no PBS wash, read-out: EC50) was 457 ± 47 µM. For the same compound, the “Cytotoxicity (cytotoxic concentration)” value (HepG2 cells [2]; human, 24 h) was greater than 500 µM and the CC50 at 24 h (in vitro) was greater than 1000 µM.
With O=C(CCc1ccc(O)cc1)c1c(O)cc(O)cc1O [Phloretin, phloretin] the EC50 (HepG2 cells [1]; [3]) was greater than 25 µM, the EC50 (HepG2 cells [1]; [4]) was greater than 25 µM and the “cellular antioxidant activity, result in words” value (HepG2 cells [1]) was “activity only at doses much higher than their cytotoxic concentrations”. The “Cytotoxicity (cytotoxic concentration)” value (HepG2 cells [2]; human, 24 h) was 25 µM.
For Oc1ccc(C=Cc2cc(O)cc(O)c2)cc1 [Resveratrol, resveratrol], the EC50 (HepG2 cells [1]; [3]) was greater than 40 µM, the EC50 (HepG2 cells [1]; [4]) was greater than 40 µM and the “cellular antioxidant activity, result in words” value (HepG2 cells [1]) was “activity only at doses much higher than their cytotoxic concentrations”. The “Cytotoxicity (cytotoxic concentration)” value (HepG2 cells [2]; Example 1, dose at which the cell number is reduced by more than 10% after 24 h treatment) was 40 µM.
